Consider three compounds from patent publication US10836727B2, “Crystal forms of lenvatinib” (Indena S.P.A., priority 2016, dated 2020).

Series [1] in a line: XRPD of the sample recovered at the end of DVS analysis. The series is classed as physicochemical. Conditions: methanesulfonate. On the procedure:
The X-ray powder diffractogram (XRPD) has been obtained using the instrument X′Pert PRO PANalytical with single scan, using Kα1 radiation. The diffractogram is measured in reflection mode in the range 3-40° 2θ.

The nature of series [2]: DVS analysis (percentage change in mass as function of relative humidity change). The format is physicochemical. Conditions: for sorption and desorption of water (reversibility): methanesulfonate. The source says: DVS analysis, shown in FIG. 11, reports the percentage change in mass as of the relative humidity change.
The DVS analysis, shown in FIG. 22, reports the percentage change in mass as function of the relative humidity change.

On to `COc1cc2nccc(Oc3ccc(NC(=O)NC4CC4)c(Cl)c3)c2cc1C(N)=O` [ACA-1 HT DRY, 4-[3-Chloro-4-(N′-cyclopropylureido)phenoxy]-7-methoxyquinoline-6-carboxamide methanesulfonate], for which, in series [1], the “diffractogram / crystal structure after DVS” value is “quite amorphous but its crystal structure did not change”. Also, the “sorption and desorption of water (reversibility)” value (from here on “sorption and desorption of water”) in series [2] (DVS analysis) is recorded as “not very reversible”.
For the compound `COc1cc2nccc(Oc3ccc(NC(=O)NC4CC4)c(Cl)c3)c2cc1C(N)=O` [DMSO-2, 4-[3-Chloro-4-(N′-cyclopropylureido)phenoxy]-7-methoxyquinoline-6-carboxamide methanesulfonate], the “weight loss of the sample between the start and the end of analysis” value in series [2] (DVS analysis, compatible with the loss of 1 mol of DMSO) is 12.34%. The “sorption and desorption of water” value in series [2] (DVS analysis) is listed as “not reversible”.
`COc1cc2nccc(Oc3ccc(NC(=O)NC4CC4)c(Cl)c3)c2cc1C(N)=O` [H2O-1, 4-[3-Chloro-4-(N′-cyclopropylureido)phenoxy]-7-methoxyquinoline-6-carboxamide methanesulfonate]: the “diffractogram / crystal structure after DVS” value in series [1] was “did not show any important modification”. Besides, the “sorption and desorption of water” value in series [2] (DVS analysis) is “reversible”. The same compound returned a mass increased percentage in series [2] (DVS, between 40% and 80% RH of the absorption cycle) of 10.9%. For the same compound, the hygroscopicity classification entry in series [2] (from DVS mass increase between 40% and 80% RH) is recorded as “hygroscopic”.
